Where “and” joins values, the source holds several entries; their conditions need not be identical. Identical values can stand only once. Calls of active or inactive are those of the source. The rule behind the calls is not given here.
Test system: rodent lifetime carcinogenesis bioassay, tumor incidence TD50
Assay: carcinogenic potency in animals, long-term in vivo studies, CPDB compilation (AID 1745844)

With `Cc1cn([C@H]2C[C@H](N=[N+]=[N-])[C@@H](CO)O2)c(=O)[nH]c1=O` the TD50 (mouse, strain B6C3F1, females, by gavage, site: any site (literature study), lesion: several types, types named in the paper, dosed 104 weeks, study length 104 weeks) was 221 mg/kg/day, the TD50 (mouse, strain B6C3F1, females, by gavage, site: liver, lesion: hepatocellular adenoma + hepatoblastoma + hepatocellular carcinoma, dosed 104 weeks, study length 104 weeks) was 139 mg/kg/day and the TD50 (mouse, strain B6C3F1, females, by gavage, site: lung, lesion: alveolar/bronchiolar adenoma + alveolar/bronchiolar carcinoma, dosed 104 weeks, study length 104 weeks) was 510 mg/kg/day. For the same compound, the TD50 (mouse, strain B6C3F1, females, by gavage, site: vagina, lesion: squamous-cell carcinoma + squamous-cell papilloma, dosed 104 weeks, study length 104 weeks) was 209 mg/kg/day, the TD50 (mouse, strain B6C3F1, females, by gavage, site: vagina, lesion: squamous-cell carcinoma, dosed 104 weeks, study length 104 weeks) was 246 mg/kg/day and the TD50 (mouse, strain B6C3F1, males, by gavage, site: Harderian gland, lesion: adenoma + carcinoma, dosed 104 weeks, study length 104 weeks) was 458 mg/kg/day. For the same compound, the TD50 (mouse, strain B6C3F1, males, by gavage, site: Harderian gland, lesion: adenoma, dosed 104 weeks, study length 104 weeks) was 425 mg/kg/day, the TD50 (mouse, strain B6C3F1, males, by gavage, site: kidney, lesion: tubule adenoma + tubule carcinoma, dosed 104 weeks, study length 104 weeks) was 929 mg/kg/day and the TD50 (mouse, strain B6C3F1, males, by gavage, site: kidney, lesion: tubule adenoma, dosed 104 weeks, study length 104 weeks) was 1250 mg/kg/day. The TD50 (mouse, strain Charles River CD1, females, by gavage, site: any site (literature study), lesion: several types, types named in the paper, dosed 95 weeks, study length 95 weeks) was 131 mg/kg/day, the TD50 (mouse, strain Charles River CD1, females, by gavage, site: vagina, lesion: several types, types named in the paper, dosed 95 weeks, study length 95 weeks) was 508 mg/kg/day and the TD50 (mouse, strain Charles River CD1, females, by gavage, site: vagina, lesion: squamous-cell carcinoma, dosed 95 weeks, study length 95 weeks) was 715 mg/kg/day. For the same compound, the carcinogen call (mouse, strain Charles River CD1, males, by gavage, site: any site (literature study), lesion: several types, types named in the paper, dosed 82 weeks, study length 82 weeks) was “negative (inactive)”, the TD50 (rat, strain Charles River CD (Sprague-Dawley), females, by gavage, site: vagina, lesion: squamous-cell carcinoma, dosed 95 weeks, study length 95 weeks) was 11600 mg/kg/day and the carcinogen call (rat, strain Charles River CD (Sprague-Dawley), males, by gavage, site: any site (literature study), lesion: several types, types named in the paper, dosed 103 weeks, study length 103 weeks) was “negative (inactive)”.

`CCN(CC)CCOc1ccc(C(O)(Cc2ccc(OC)cc2)c2ccccc2)cc1` (configuration not stated) was tested, and the carcinogen call (rat, strain Not specified, females, by gavage, site: mammary tissue, wider than the gland, lesion: one or several types, types not named, dosed 52 weeks, study length 52 weeks) was “negative (inactive)”.

For `CC(C)CCCCCCOC(=O)c1ccccc1C(=O)OCCCCCCC(C)C`, the TD50 (mouse, strain B6C3F1, females, in feed, site: liver, lesion: hepatocellular carcinoma, dosed 78 weeks, study length 104 weeks) was 3340 mg/kg/day, the TD50 (mouse, strain B6C3F1, females, in feed, site: liver, lesion: hepatocellular carcinoma, dosed 79 weeks, study length 79 weeks) was 5240 mg/kg/day and the TD50 (mouse, strain B6C3F1, females, in feed, site: liver, lesion: hepatocellular carcinoma, dosed 104 weeks, study length 104 weeks) was 2620 mg/kg/day. For the same compound, the TD50 (mouse, strain B6C3F1, females, in feed, site: liver, lesion: several types, types named in the paper, dosed 79 weeks, study length 79 weeks) was 2860 mg/kg/day, the TD50 (mouse, strain B6C3F1, females, in feed, site: liver, lesion: several types, types named in the paper, dosed 104 weeks, study length 104 weeks) was 1440 mg/kg/day and the TD50 (mouse, strain B6C3F1, males, in feed, site: liver, lesion: hepatocellular carcinoma, dosed 78 weeks, study length 104 weeks) was 4100 mg/kg/day. The TD50 (mouse, strain B6C3F1, males, in feed, site: liver, lesion: hepatocellular carcinoma, dosed 79 weeks, study length 79 weeks) was 1460 mg/kg/day, the TD50 (mouse, strain B6C3F1, males, in feed, site: liver, lesion: hepatocellular carcinoma, dosed 104 weeks, study length 104 weeks) was 2920 mg/kg/day and the TD50 (mouse, strain B6C3F1, males, in feed, site: liver, lesion: several types, types named in the paper, dosed 79 weeks, study length 79 weeks) was 1460 mg/kg/day. The TD50 (mouse, strain B6C3F1, males, in feed, site: liver, lesion: several types, types named in the paper, dosed 104 weeks, study length 104 weeks) was 1590 mg/kg/day, the TD50 (rat, strain Fischer 344, females, in feed, site: all sites, lesion: mononuclear-cell leukemia, dosed 78 weeks, study length 104 weeks) was 1140 mg/kg/day and the TD50 (rat, strain Fischer 344, females, in feed, site: all sites, lesion: mononuclear-cell leukemia, dosed 79 weeks, study length 79 weeks) was 1690 mg/kg/day. For the same compound, the TD50 (rat, strain Fischer 344, females, in feed, site: all sites, lesion: mononuclear-cell leukemia, dosed 104 weeks, study length 104 weeks) was 458 mg/kg/day and 1150 mg/kg/day, the TD50 (rat, strain Fischer 344, females, in feed, site: liver, lesion: hepatocellular adenoma, dosed 79 weeks, study length 79 weeks) was 3440 mg/kg/day and the TD50 (rat, strain Fischer 344, females, in feed, site: liver, lesion: hepatocellular carcinoma, dosed 78 weeks, study length 104 weeks) was 14300 mg/kg/day. It also gave a TD50 (rat, strain Fischer 344, females, in feed, site: liver, lesion: hepatocellular carcinoma, dosed 104 weeks, study length 104 weeks) of 7980 mg/kg/day, a TD50 (rat, strain Fischer 344, males, in feed, site: all sites, lesion: mononuclear-cell leukemia, dosed 78 weeks, study length 104 weeks) of 445 mg/kg/day and a TD50 (rat, strain Fischer 344, males, in feed, site: kidney, lesion: tubular carcinoma, dosed 78 weeks, study length 104 weeks) of 2960 mg/kg/day. For the same compound, the TD50 (rat, strain Fischer 344, males, in feed, site: kidney, lesion: tubular carcinoma, dosed 104 weeks, study length 104 weeks) was 17200 mg/kg/day, the TD50 (rat, strain Fischer 344, males, in feed, site: liver, lesion: hepatocellular carcinoma, dosed 78 weeks, study length 104 weeks) was 9740 mg/kg/day and the TD50 (rat, strain Fischer 344, males, in feed, site: liver, lesion: hepatocellular carcinoma, dosed 79 weeks, study length 79 weeks) was 2750 mg/kg/day. For the same compound, the TD50 (rat, strain Fischer 344, males, in feed, site: liver, lesion: hepatocellular carcinoma, dosed 104 weeks, study length 104 weeks) was 2640 mg/kg/day.

Compound `O=c1cc[nH]c(=O)[nH]1` has a TD50 (mouse, strain B6C3F1, females, in feed, site: liver, lesion: hyperplastic nodule, dosed 96 weeks, study length 96 weeks) of 18200 mg/kg/day, a TD50 (mouse, strain B6C3F1, females, in feed, site: urinary bladder, lesion: carcinoma, in situ, dosed 96 weeks, study length 96 weeks) of 56700 mg/kg/day and a TD50 (mouse, strain B6C3F1, females, in feed, site: urinary bladder, lesion: leiomyosarcoma, dosed 96 weeks, study length 96 weeks) of 56700 mg/kg/day. It also gave a TD50 (mouse, strain B6C3F1, females, in feed, site: urinary bladder, lesion: transitional-cell carcinoma, dosed 96 weeks, study length 96 weeks) of 1450 mg/kg/day, a TD50 (mouse, strain B6C3F1, males, in feed, site: liver, lesion: hyperplastic nodule, dosed 96 weeks, study length 96 weeks) of 48800 mg/kg/day and a TD50 (mouse, strain B6C3F1, males, in feed, site: lung, lesion: adenocarcinoma, dosed 96 weeks, study length 96 weeks) of 52300 mg/kg/day. For the same compound, the TD50 (mouse, strain B6C3F1, males, in feed, site: urinary bladder, lesion: squamous-cell carcinoma, dosed 96 weeks, study length 96 weeks) was 25700 mg/kg/day, the TD50 (mouse, strain B6C3F1, males, in feed, site: urinary bladder, lesion: transitional-cell carcinoma, dosed 96 weeks, study length 96 weeks) was 25700 mg/kg/day and the TD50 (rat, strain F344/DuCrj, females, in feed, site: kidney/pelvis, lesion: carcinoma, dosed 104 weeks, study length 104 weeks) was 9760 mg/kg/day. For the same compound, the TD50 (rat, strain F344/DuCrj, females, in feed, site: urinary bladder, lesion: squamous-cell papilloma, dosed 104 weeks, study length 104 weeks) was 29300 mg/kg/day, the TD50 (rat, strain F344/DuCrj, females, in feed, site: urinary bladder, lesion: transitional-cell carcinoma, dosed 104 weeks, study length 104 weeks) was 5640 mg/kg/day and the TD50 (rat, strain F344/DuCrj, females, in feed, site: urinary bladder, lesion: transitional-cell papilloma, dosed 104 weeks, study length 104 weeks) was 4260 mg/kg/day. For the same compound, the TD50 (rat, strain F344/DuCrj, males, in feed, site: kidney/pelvis, lesion: carcinoma, dosed 104 weeks, study length 104 weeks) was 3090 mg/kg/day, the TD50 (rat, strain F344/DuCrj, males, in feed, site: kidney/pelvis, lesion: papilloma, dosed 104 weeks, study length 104 weeks) was 5750 mg/kg/day and the TD50 (rat, strain F344/DuCrj, males, in feed, site: urinary bladder, lesion: leiomyosarcoma, dosed 104 weeks, study length 104 weeks) was 24300 mg/kg/day. For the same compound, the TD50 (rat, strain F344/DuCrj, males, in feed, site: urinary bladder, lesion: squamous-cell carcinoma, dosed 104 weeks, study length 104 weeks) was 7800 mg/kg/day, the TD50 (rat, strain F344/DuCrj, males, in feed, site: urinary bladder, lesion: squamous-cell papilloma, dosed 104 weeks, study length 104 weeks) was 24300 mg/kg/day and the TD50 (rat, strain F344/DuCrj, males, in feed, site: urinary bladder, lesion: transitional-cell carcinoma, dosed 104 weeks, study length 104 weeks) was 357 mg/kg/day. It also gave a TD50 (rat, strain F344/DuCrj, males, in feed, site: urinary bladder, lesion: transitional-cell papilloma, dosed 104 weeks, study length 104 weeks) of 511 mg/kg/day.

With `COC(=O)C1=C(C)NC(C)=C(C(=O)OCC(C)(C)CN(C)Cc2ccccc2)C1c1cc([N+](=O)[O-])ccc1F` (configuration not stated) the carcinogen call (rat, strain Fischer 344, females, in feed, site: liver, lesion: one or several types, types not named, dosed 104 weeks, study length 104 weeks) was “negative (inactive)”, the carcinogen call (rat, strain Fischer 344, males, in feed, site: all sites, lesion: mononuclear-cell leukemia, dosed 104 weeks, study length 104 weeks) was “negative (inactive)” and the carcinogen call (rat, strain Fischer 344, males, in feed, site: liver, lesion: hepatocellular adenoma, dosed 104 weeks, study length 104 weeks) was “negative (inactive)”.

`CC(C)OC(=O)COc1ccc(Cl)cc1Cl` was tested, and the TD50 (mouse, strain B6AKF1, females, oral dosing, site: any site (literature study), lesion: several types, types named in the paper, dosed 76 weeks, study length 76 weeks) was 83.2 mg/kg/day (inactive), the TD50 (mouse, strain B6AKF1, females, oral dosing, site: liver, lesion: hepatocellular carcinoma, dosed 76 weeks, study length 76 weeks) was 94.7 mg/kg/day (inactive) and the carcinogen call (mouse, strain B6AKF1, females, oral dosing, site: lung, lesion: adenoma, dosed 76 weeks, study length 76 weeks) was “negative (inactive)”. The carcinogen call (mouse, strain B6AKF1, males, oral dosing, site: any site (literature study), lesion: several types, types named in the paper, dosed 76 weeks, study length 76 weeks) was “negative (inactive)”, the carcinogen call (mouse, strain B6AKF1, males, oral dosing, site: liver, lesion: hepatoma, dosed 76 weeks, study length 76 weeks) was “negative (inactive)” and the carcinogen call (mouse, strain B6AKF1, males, oral dosing, site: lung, lesion: adenoma, dosed 76 weeks, study length 76 weeks) was “negative (inactive)”. The TD50 (mouse, strain B6C3F1, females, oral dosing, site: any site (literature study), lesion: several types, types named in the paper, dosed 76 weeks, study length 76 weeks) was 48.7 mg/kg/day (inactive), the TD50 (mouse, strain B6C3F1, females, oral dosing, site: liver, lesion: hepatoma, dosed 76 weeks, study length 76 weeks) was 100 mg/kg/day (inactive) and the TD50 (mouse, strain B6C3F1, females, oral dosing, site: lung, lesion: adenoma, dosed 76 weeks, study length 76 weeks) was 100 mg/kg/day (inactive). The TD50 (mouse, strain B6C3F1, males, oral dosing, site: any site (literature study), lesion: several types, types named in the paper, dosed 76 weeks, study length 76 weeks) was 16.4 mg/kg/day (inactive), the TD50 (mouse, strain B6C3F1, males, oral dosing, site: liver, lesion: hepatoma, dosed 76 weeks, study length 76 weeks) was 93.6 mg/kg/day (inactive) and the TD50 (mouse, strain B6C3F1, males, oral dosing, site: lung, lesion: adenoma, dosed 76 weeks, study length 76 weeks) was 21.3 mg/kg/day (inactive).

— PubChem BioAssay AID1745844 (Carcinogenic Potency Database (CPDB), 2022)
